# Measurements as given in PubChem BioAssay (NCI).
#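 Abbreviation: GI50, concentration required for 50% inhibition of growth. TGI: concentration producing complete growth inhibition.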
# Experiments:
# Assay in all cases: inhibition of tumour cell growth, NCI panel, 384-well format
# OVCAR-4 ovarian = test system: OVCAR-4 ovarian
# MCF7 breast = test system: MCF7 breast
# NCI/ADR-RES ovarian = test system: NCI/ADR-RES ovarian
# HOP-62 NSCLC = test system: HOP-62 NSCLC
# U251 glioblastoma = test system: U251 glioblastoma
# BT-549 breast = test system: BT-549 breast
# SK-OV-3 ovarian = test system: SK-OV-3 ovarian
# TK-10 renal = test system: TK-10 renal
# MDA-MB-231 breast = test system: MDA-MB-231 breast
# NCI-H460 NSCLC = test system: NCI-H460 NSCLC
# SK-MEL-28 melanoma = test system: SK-MEL-28 melanoma
# T-47D breast = test system: T-47D breast
# EKVX NSCLC = test system: EKVX NSCLC
# SN12C renal = test system: SN12C renal
# ACHN renal = test system: ACHN renal
# MDA-MB-435 melanoma = test system: MDA-MB-435 melanoma
# MALME-3M melanoma = test system: MALME-3M melanoma
# OVCAR-5 ovarian = test system: OVCAR-5 ovarian
# RPMI-8226 leukemia = test system: RPMI-8226 leukemia
# OVCAR-3 ovarian = test system: OVCAR-3 ovarian
# NCI-H322M lung = test system: NCI-H322M lung
# NCI-H226 lung = test system: NCI-H226 lung
# COLO 205 colon = test system: COLO 205 colon
# SF-268 CNS = test system: SF-268 CNS
# SNB-75 CNS = test system: SNB-75 CNS
# HL-60(TB) leukemia = test system: HL-60(TB) leukemia
# SNB-19 CNS = test system: SNB-19 CNS
smiles,measurement,setting,value
O=C1Nc2ccc(CN3CCOC3=O)cc2/C1=C/c1cc(CN2CCOCC2)c[nH]1,GI50,OVCAR-4 ovarian,33.5 µM
same,TGI,OVCAR-4 ovarian,93.3 µM
same,GI50,MCF7 breast,33.1 µM
same,TGI,MCF7 breast,> 100 µM
same,GI50,NCI/ADR-RES ovarian,30 µM
same,TGI,NCI/ADR-RES ovarian,83.9 µM
same,GI50,HOP-62 NSCLC,31.6 µM
same,TGI,HOP-62 NSCLC,75.9 µM
same,GI50,U251 glioblastoma,42.2 µM
same,TGI,U251 glioblastoma,> 100 µM
same,GI50,BT-549 breast,24.5 µM
same,TGI,BT-549 breast,58.9 µM
same,GI50,SK-OV-3 ovarian,43.5 µM
same,TGI,SK-OV-3 ovarian,> 100 µM
same,GI50,TK-10 renal,43.3 µM
same,TGI,TK-10 renal,> 100 µM
same,GI50,MDA-MB-231 breast,58.8 µM
same,TGI,MDA-MB-231 breast,> 100 µM
same,GI50,NCI-H460 NSCLC,19.6 µM
same,TGI,NCI-H460 NSCLC,40 µM
same,GI50,SK-MEL-28 melanoma,71.8 µM
same,TGI,SK-MEL-28 melanoma,> 100 µM
same,GI50,T-47D breast,17.5 µM
same,TGI,T-47D breast,44 µM
same,GI50,EKVX NSCLC,38.2 µM
same,TGI,EKVX NSCLC,> 100 µM
same,GI50,SN12C renal,27.1 µM
same,TGI,SN12C renal,> 100 µM
same,GI50,ACHN renal,77.9 µM
same,TGI,ACHN renal,> 100 µM
same,GI50,MDA-MB-435 melanoma,25.5 µM
same,TGI,MDA-MB-435 melanoma,76.7 µM
same,GI50,MALME-3M melanoma,> 100 µM
same,TGI,MALME-3M melanoma,> 100 µM
same,GI50,OVCAR-5 ovarian,> 100 µM
same,TGI,OVCAR-5 ovarian,> 100 µM
same,GI50,RPMI-8226 leukemia,18.2 µM
same,TGI,RPMI-8226 leukemia,39.8 µM
same,GI50,OVCAR-3 ovarian,40.3 µM
same,TGI,OVCAR-3 ovarian,> 100 µM
same,GI50,NCI-H322M lung,43.7 µM
same,TGI,NCI-H322M lung,> 100 µM
same,GI50,NCI-H226 lung,33.3 µM
same,TGI,NCI-H226 lung,83 µM
same,GI50,COLO 205 colon,49.2 µM
same,TGI,COLO 205 colon,> 100 µM
same,GI50,SF-268 CNS,49.9 µM
same,TGI,SF-268 CNS,> 100 µM
same,GI50,SNB-75 CNS,86 µM
same,TGI,SNB-75 CNS,> 100 µM
same,GI50,HL-60(TB) leukemia,16.3 µM
same,TGI,HL-60(TB) leukemia,30 µM
same,GI50,SNB-19 CNS,63.3 µM
same,TGI,SNB-19 CNS,> 100 µM
